These results are taken from PubChem BioAssay (NCI).

What all share (experiment): inhibition of tumour cell growth, NCI panel, 48 h
Assay [1] has as its system SK-OV-3 ovarian.
Assay [2] has as its system OVCAR-5 ovarian.
For assay [3], the system named is UO-31 renal.
Assay [4] deals with T-47D breast.
Assay [5] has as its system PC-3 prostate.
Assay [6] deals with SW-620 colon.
Assay [7] relates to IGROV1 ovarian.
Assay [8] has as its system OVCAR-4 ovarian.
In assay [9] the test system is DMS 273 small cell lung.
Assay [10] relates to DLD-1 colon.

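Results reflect a 48-hour exposure of cells in 96-well plates to compound at five concentrations. GI50 = concentration required for 50% inhibition of growth. The concentration for full growth arrest is given as TGI.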

As for `CC(C)(C)OC(=O)N(CCCn1c2c(c3ccccc3c1=O)C(=O)c1ccccc1-2)CCN(CCCn1c2c(c3ccccc3c1=O)C(=O)c1ccccc1-2)C(=O)OC(C)(C)C`, the GI50 in [1] was above 50 µM; in assay [2], above 50 µM; in assay [3] it was above 50000 nM; in assay [4], above 50000 nM; in assay [5], above 50000 nM; in assay [6], 49.1 µM. The figures for the GI50 in assay [7] and in [8] were 21.8 µM and above 50000 nM, respectively. Besides, the TGI in [1], in [2], in [3], in [4], in [5] and in assay [6] was above 50 µM throughout. For the same compound, the TGI in assay [7] and in assay [8] was above 50 µM throughout.

With `COc1ccc(-n2nc(C)c3c(Nc4ccc(NC(=O)Nc5cc(C(F)(F)F)ccc5F)cc4)ncnc32)cc1`, the GI50 in assay [1] was 3.48 µM; in assay [2], 2.87 µM; in assay [3], 1790 nM; in assay [4], 2570 nM; in assay [5], 2130 nM; in [6], 3.45 µM. In addition, the figures for the GI50 in assay [7] and in assay [8] were 2.98 µM and 2830 nM, respectively. The TGI in assay [1] is 82.3 µM; in assay [2] it was 10.6 µM; in assay [3], 7.04 µM; in assay [4], 8.72 µM; in assay [5], 6.85 µM; in [6], 22.6 µM. Further, the TGI is 11.1 µM in assay [7] and above 100 µM in [8].

Consider `CC(=O)OC1CC(C)c2c1ncnc2N1CCN(C(=O)OC(C)(C)C)CC1` (stereo not drawn), for which the GI50 in assay [1] is 53.7 µM; in assay [2], 99.2 µM; in assay [3], above 100000 nM; in assay [4], 54000 nM; in assay [5] it was 38700 nM; in [6], 42.9 µM. For the same compound, the GI50 in [7] was 92.5 µM; in assay [8] it was 63600 nM. Moreover, the TGI in assay [1], in [2], in [3], in [4], in [5] and in assay [6] was above 100 µM each time. In addition, the TGI in assay [7] and in [8] was above 100 µM in each case.

As for `COc1cccc2c1C(=O)c1c(O)c3c(c(O)c1C2=O)C[C@@](O)(C(=O)COC(=O)c1cccnc1)C[C@@H]3OC1CC(N)C(O)C(C)O1` (stereo partly drawn), the GI50 in assay [1] is 0.382 µM; in assay [2], 0.335 µM; in assay [3], 460 nM; in assay [4], 98.2 nM; in assay [5] it was 222 nM; in assay [6], 0.0605 µM. For the same compound, the GI50 in assay [7] is 0.121 µM; in assay [8] it was 280 nM. Further, the TGI came to 26 µM in assay [1]; 4.53 µM in assay [2]; 2.89 µM in [3]; 2.64 µM in assay [4]; 1.43 µM in [5]; 2.17 µM in assay [6]. Further, the TGI in assay [7] worked out at 3.79 µM; in assay [8], 3.48 µM.

As for `COc1ccc(S(=O)(=O)N2CCCCC2)cc1NC(=O)c1[nH]c(C)c2c1CCCCC2=O`, the GI50 in assay [1] was 2.14 µM; in assay [2] it was 2.53 µM; in assay [3], 379 nM; in [4], 1410 nM; in assay [5], 2600 nM; in [6], 8.04 µM. In addition, the GI50 in assay [7] was 1.45 µM; in [8], 2110 nM. Besides, the TGI in assay [1] was 44.4 µM; in [2], above 100 µM; in [3], 40.7 µM; in assay [4], 46.9 µM; in [5], above 100 µM; in [6] it was above 100 µM. Besides, the TGI in assay [7] is 44.3 µM; in [8], above 100 µM.

As to `CN1NC(c2ccccc2)=C(C#N)C(=O)CC1c1ccccc1Cl` (stereo not drawn), the TGI in assay [1], in assay [9], in assay [2], in assay [10], in assay [6] and in assay [8] was above 100 µM in each case.

Turning to `C=C(C)[C@@H]1CC[C@]2(c3ncc(C)o3)CC[C@]3(C)[C@H](CC[C@@H]4[C@@](C)(CCC#N)[C@H](C(=C)C)CC[C@]43C)[C@@H]12`, the GI50 in assay [1] is 11.4 µM; in [2], 8.73 µM; in assay [3] it was 2400 nM; in assay [4], 3190 nM; in assay [5], 1830 nM; in assay [6], 5.81 µM. Also, the GI50 was 5.07 µM in assay [7] and 4380 nM in assay [8]. For the same compound, the TGI in assay [1] stood at 25.2 µM; in [2], 21.1 µM; in assay [3] it was 14.8 µM; in [4], 15 µM; in assay [5], 4 µM; in assay [6], 20.8 µM. Also, the TGI was determined as 19.1 µM in assay [7] and 17.3 µM in assay [8].

As to `CNC1=C(Br)C(=O)C2=C(C1=O)C1C3=C(C(=O)C=CC3=O)C2c2ccccc21` (stereo not drawn), the GI50 was 10.3 µM in [1]; 6.96 µM in assay [2]; 6730 nM in assay [3]; 2900 nM in assay [4]; 1380 nM in assay [5]; 2.79 µM in assay [6]. The GI50 in assay [7] was 4.69 µM; in assay [8], 1760 nM. The TGI is above 55.2 µM in assay [1]; 31.4 µM in [2]; 14.4 µM in [3]; above 40.3 µM in assay [4]; above 29.1 µM in assay [6]; 18 µM in [7]. The compound further registered a TGI in assay [8] of 4.93 µM.

Regarding `CCCCCCCCOC(=O)c1cc(O)c(O)c(O)c1`, the GI50 in assay [1] is 7.28 µM; in [2], 12.5 µM; in [3], 279 nM; in assay [4] it was 2610 nM; in assay [5] it was 2020 nM; in [6], 2.87 µM. Also, the GI50 in assay [7] was 0.913 µM; in assay [8] it was 2630 nM. For the same compound, the TGI is 28 µM in [1]; 52.9 µM in assay [2]; 2.9 µM in [3]; 21.8 µM in [4]; 20.5 µM in [5]; 19.4 µM in [6]. The TGI in assay [7] was 4.88 µM; in [8], above 100 µM.
